The source of these data is patent publication US12582641B2, “Sulfur-containing compound based on glutarimide skeleton and application thereof” (SHANGHAITECH UNIVERSITY, priority 2019, dated 2026).

In this test the test system is MM.1S cells. Kind of test: Proliferation inhibition (IC50) in MM.1S cells, cell viability assay. The note with it: Homo sapiens, MM1.S, 72 h, read-out: IC50 (nM), proliferation inhibitory activity of MM.1S cells (half inhibitory concentration).
`O=C1CCC(N2Cc3c(SCCCCCCCCO)cccc3C2=O)C(=O)N1` (stereo not drawn) [SIAIS264006, 3-(4-((8-hydroxyoctyl)thio)-1-oxoisoindolin-2-yl)piperidine-2,6-dione]: the IC50 was 0.83 nM.
In the case of `O=C1CCC(N2Cc3c(SCCCCCCCCNc4ncnc5ccccc45)cccc3C2=O)C(=O)N1` (stereo not drawn) [SIAIS264011, 3-(1-oxo-4-((8-(quinazolin-4-ylamino)octyl)thio)isoindolin-2-yl)piperidine-2,6-dione], the IC50 stood at 0.34 nM.
In the case of `O=C1CCC(N2Cc3c(SCCCCCCCCN4CCCCC4=O)cccc3C2=O)C(=O)N1` (stereo not drawn) [SIAIS264019, 3-(1-oxo-4-((8-(2-oxopiperidin-1-yl)octyl)thio)isoindolin-2-yl)piperidine-2,6-dione], the IC50 turned out to be 0.13 nM.
For `O=C1CCC(N2Cc3c(SCCCCCCCN4CCCCC4=O)cccc3C2=O)C(=O)N1` (stereo not drawn) [SIAIS264042, 3-(1-oxo-4-((7-(2-oxopiperidin-1-yl)heptyl)thio)isoindolin-2-yl)piperidine-2,6-dione], the IC50 worked out at 0.051 nM.
In the case of `Cc1ccc(NC(=O)NCCSc2cccc3c2CN(C2CCC(=O)NC2=O)C3=O)cc1Cl` (stereo not drawn) [SIAIS269012, 1-(3-chloro-4-methylphenyl)-3-(2-((2-(2,6-dioxopiperidin-3-yl)-1-oxoisoindolin-4-yl)thio)ethyl)urea], the IC50 was 3.79 nM.
Take `Cc1ccc(NC(=O)NCCCCCCCSc2cccc3c2CN(C2CCC(=O)NC2=O)C3=O)cc1Cl` (stereo not drawn) [SIAIS269068, 1-(3-chloro-4-methylphenyl)-3-(7-((2-(2,6-dioxopiperidin-3-yl)-1-oxoisoindolin-4-yl)thio)heptyl)urea]: the IC50 stood at 0.901 nM.
In the case of `Cc1ccc(NC(=O)NCCCCCCCCSc2cccc3c2CN(C2CCC(=O)NC2=O)C3=O)cc1Cl` (stereo not drawn) [SIAIS269072, 1-(3-chloro-4-methylphenyl)-3-(8-((2-(2,6-dioxopiperidin-3-yl)-1-oxoisoindolin-4-yl)thio)octyl)urea], the IC50 amounted to 0.468 nM.
Next, `Cc1ccc(NC(=O)NCCCCSc2cccc3c2CN(C2CCC(=O)NC2=O)C3=O)cc1Cl` (stereo not drawn) [SIAIS269095, 1-(3-chloro-4-methylphenyl)-3-(4-((2-(2,6-dioxopiperidin-3-yl)-1-oxoisoindolin-4-yl)thio)butyl)urea]: 0.334 nM.
Next, `O=C1CCC(N2Cc3c(SCCCCCCCOC4C5CC6CC(C5)CC4C6)cccc3C2=O)C(=O)N1` (stereo not drawn) [SIAIS269159, 3-(4-((7-(adamantan-2-yloxy)heptyl)thio)-1-oxoisoindolin-2-yl)piperidine-2,6-dione]: 0.068 nM; `O=C1CCC(N2Cc3cc(SCCCCCCCNC45CC6CC(CC(C6)C4)C5)ccc3C2=O)C(=O)N1` (stereo not drawn) [SIAIS271167, 3-(5-((7-((adamantan-1-yl)amino)heptyl)thio)-1-oxoisoindolin-2-yl)piperidine-2,6-dione]: 164 nM; `CN(CCCCNC(=O)CSc1cccc2c1CN(C1CCC(=O)NC1=O)C2=O)C12CC3CC(CC(C3)C1)C2` (stereo not drawn) [SIAIS287105, N-(4-(adamantan-1-yl(methyl)amino)butyl)-2-((2-(2,6-dioxopiperidin-3-yl)-1-oxoisoindolin-4-yl)thio)acetamide]: 5.01 nM.
Next, `O=C1CCC(N2Cc3c(SCc4ccc(CN5CCCCC5)o4)cccc3C2=O)C(=O)N1` (stereo not drawn) [SIAIS313123, 3-(1-oxo-4-(((5-(piperidin-1-ylmethyl)furan-2-yl)methyl)thio)isoindolin-2-yl)piperidine-2,6-dione]: 2.29 ± 0.95 nM; `O=C1CCC(N2Cc3c(SCc4ccc(CN5CCOCC5)o4)cccc3C2=O)C(=O)N1` (stereo not drawn) [SIAIS313126, 3-(4-(((5-(morpholinomethyl)furan-2-yl)methyl)thio)-1-oxoisoindolin-2-yl)piperidine-2,6-dione]: 2.97 ± 0.79 nM; `C[C@H](NCc1ccc(CSc2cccc3c2CN(C2CCC(=O)NC2=O)C3=O)o1)C1CC1` (stereo partly drawn) [SIAIS313129, 3-(4-(((5-((((S)-1-cyclopropylethyl)amino)methyl)furan-2-yl)methyl)thio)-1-oxoisoindolin-2-yl)piperidine-2,6-dione]: 0.97 ± 0.55 nM.
With `O=C1CCC(N2Cc3c(SCc4ccc(CN5CCCCCC5)o4)cccc3C2=O)C(=O)N1` (stereo not drawn) [SIAIS313135, 3-(4-(((5-(azepan-1-ylmethyl)furan-2-yl)methyl)thio)-1-oxoisoindolin-2-yl)piperidine-2,6-dione], the IC50 was found to be 2.62 ± 0.94 nM.
Consider `O=C1CCC(N2Cc3c(SCc4ccc(CNC5CCCC5)o4)cccc3C2=O)C(=O)N1` (stereo not drawn) [SIAIS313148, 3-(4-(((5-((cyclopentylamino)methyl)furan-2-yl)methyl)thio)-1-oxoisoindolin-2-yl)piperidine-2,6-dione], for which the IC50 amounted to 0.95 ± 0.45 nM.
Next, `O=C1CCC(N2Cc3c(SCc4ccc(CNCC5CCCCO5)o4)cccc3C2=O)C(=O)N1` (stereo not drawn) [SIAIS313149, 3-(1-oxo-4-(((5-((((tetrahydro-2H-pyran-2-yl)methyl)amino)methyl)furan-2-yl)methyl)thio)isoindolin-2-yl)piperidine-2,6-dione]: 1.3 ± 0.96 nM; `O=C1CCC(N2Cc3c(SCc4ccc(CNC(C5CC5)C5CC5)o4)cccc3C2=O)C(=O)N1` (stereo not drawn) [SIAIS313150, 3-(4-(((5-(((dicyclopropylmethyl)amino)methyl)furan-2-yl)methyl)thio)-1-oxoisoindolin-2-yl)piperidine-2,6-dione]: 0.7 ± 0.27 nM.
Next, `O=C1CCC(N2Cc3c(SCc4csc(CN5CCOCC5)n4)cccc3C2=O)C(=O)N1` (stereo not drawn) [SIAIS313163, 3-(4-(((2-(morpholinomethyl)thiazol-4-yl)methyl)thio)-1-oxoisoindolin-2-yl)piperidine-2,6-dione]: 9.38 ± 1.37 nM.
Next, `O=C1CCC(N2Cc3c(SCc4csc(CN5CCCCC5)n4)cccc3C2=O)C(=O)N1` (stereo not drawn) [SIAIS313164, 3-(1-oxo-4-(((2-(piperidin-1-ylmethyl)thiazol-4-yl)methyl)thio)isoindolin-2-yl)piperidine-2,6-dione]: 2.78 ± 0.73 nM; `O=C1CCC(N2Cc3c(SCc4csc(CN5CCCCCC5)n4)cccc3C2=O)C(=O)N1` (stereo not drawn) [SIAIS313165, 3-(4-(((2-(azepan-1-ylmethyl)thiazol-4-yl)methyl)thio)-1-oxoisoindolin-2-yl)piperidine-2,6-dione]: 2.77 ± 1.12 nM; `O=C1CCC(N2Cc3c(SCc4csc(CNC5CCCC5)n4)cccc3C2=O)C(=O)N1` (stereo not drawn) [SIAIS313166, 3-(4-(((2-((cyclopentylamino)methyl)thiazol-4-yl)methyl)thio)-1-oxoisoindolin-2-yl)piperidine-2,6-dione]: 7.55 ± 1.89 nM.
`O=C1CCC(N2Cc3c(SCc4nc(CN5CCOCC5)cs4)cccc3C2=O)C(=O)N1` (stereo not drawn) [SIAIS313169, 3-(4-(((4-(morpholinomethyl)thiazol-2-yl)methyl)thio)-1-oxoisoindolin-2-yl)piperidine-2,6-dione]: the IC50 stood at 5.03 ± 2.13 nM.
With `O=C1CCC(N2Cc3c(SCc4nc(CN5CCCCC5)cs4)cccc3C2=O)C(=O)N1` (stereo not drawn) [SIAIS313170, 3-(1-oxo-4-(((4-(piperidin-1-ylmethyl)thiazol-2-yl)methyl)thio)isoindolin-2-yl)piperidine-2,6-dione], the IC50 stood at 2.56 ± 0.56 nM.
With `O=C1CCC(N2Cc3c(SCc4nc(CN5CCCCCC5)cs4)cccc3C2=O)C(=O)N1` (stereo not drawn) [SIAIS313171, 3-(4-(((4-(azepan-1-ylmethyl)thiazol-2-yl)methyl)thio)-1-oxoisoindolin-2-yl)piperidine-2,6-dione] the figure was 1.34 ± 0.32 nM; with `CC1CC(C)CN(Cc2csc(CSc3cccc4c3CN(C3CCC(=O)NC3=O)C4=O)n2)C1` (stereo not drawn) [SIAIS313186, 3-(4-(((4-((3,5-dimethylpiperidin-1-yl)methyl)thiazol-2-yl)methyl)thio)-1-oxoisoindolin-2-yl)piperidine-2,6-dione], 1.63 ± 0.61 nM; with `O=C1CCC(N2Cc3c(SCc4nc(CN5CC6CCCCC6C5)cs4)cccc3C2=O)C(=O)N1` (stereo not drawn) [SIAIS313188, 3-(4-(((4-((hexahydro-1H-isoindol-2(3H)-yl)methyl)thiazol-2-yl)methyl)thio)-1-oxoisoindolin-2-yl)piperidine-2,6-dione], 1.43 ± 0.3 nM.
Next, `O=C1CCC(N2Cc3c(SCc4nc(CN5CCSCC5)cs4)cccc3C2=O)C(=O)N1` (stereo not drawn) [SIAIS355001, 3-(1-oxo-4-(((4-(thiomorpholinomethyl)thiazol-2-yl)methyl)thio)isoindolin-2-yl)piperidine-2,6-dione]: 2.51 ± 0.54 nM; `CCN(CC)Cc1csc(CSc2cccc3c2CN(C2CCC(=O)NC2=O)C3=O)n1` (stereo not drawn) [SIAIS355002, 3-(4-(((4-((diethylamino)methyl)thiazol-2-yl)methyl)thio)-1-oxoisoindolin-2-yl)piperidine-2,6-dione]: 1.07 ± 0.39 nM; `O=C1CCC(N2Cc3c(SCc4nc(CNC5CCCCC5)cs4)cccc3C2=O)C(=O)N1` (stereo not drawn) [SIAIS355003, 3-(4-(((4-((cyclohexylamino)methyl)thiazol-2-yl)methyl)thio)-1-oxoisoindolin-2-yl)piperidine-2,6-dione]: 0.75 ± 0.1 nM.
Regarding `O=C1CCC(N2Cc3c(SCc4nc(CNCC5CCCCC5)cs4)cccc3C2=O)C(=O)N1` (stereo not drawn) [SIAIS355004, 3-(4-(((4-(((cyclohexylmethyl)amino)methyl)thiazol-2-yl)methyl)thio)-1-oxoisoindolin-2-yl)piperidine-2,6-dione], the IC50 was 0.61 ± 0.42 nM.
Turning to `CSc1cccc2c1CN(C1CCC(=O)NC1=O)C2=O` (stereo not drawn) [SIAIS1210071, 3-(4-(methylthio)-1-oxoisoindolin-2-yl)piperidine-2,6-dione], the IC50 came to 3.37 ± 0.48 nM.
For `CCCCCSc1cccc2c1CN(C1CCC(=O)NC1=O)C2=O` (stereo not drawn) [SIAIS1213195, 3-(1-oxo-4-(pentylthio)isoindolin-2-yl)piperidine-2,6-dione], the IC50 worked out at 1.48 ± 0.06 nM.
With `CCCCCCCCSc1cccc2c1CN(C1CCC(=O)NC1=O)C2=O` (stereo not drawn) [SIAIS1216025, 3-(4-(octylthio)-1-oxoisoindolin-2-yl)piperidine-2,6-dione] the figure was 2.1 ± 0.67 nM.
With `O=C1CCC(N2Cc3c(SCCCCCN4CCOCC4)cccc3C2=O)C(=O)N1` (stereo not drawn) [SIAIS1216061, 3-(4-((5-morpholinopentyl)thio)-1-oxoisoindolin-2-yl)piperidine-2,6-dione], the IC50 came to 2.52 ± 0.22 nM.
Next, `O=C1CCC(N2Cc3c(SCCCCCN4CCNCC4)cccc3C2=O)C(=O)N1` (stereo not drawn) [SIAIS1216063, 3-(1-oxo-4-((5-(piperazin-1-yl)pentyl)thio)isoindolin-2-yl)piperidine-2,6-dione]: 8.58 ± 2.58 nM.
